In this test the target is T1, human B-Raf (Homo sapiens, UniProt P15056).
T1 construct: Flag; GST; made in house; host or cells: Sf9 insect cells (B-Raf); E. coli (MEK1-GST)
In words: B-Raf Kinase to MEK1 ELISA. The test is classed as biochemical. Conditions: for inhibition at 10 µM: read-out: % Inhib./10 uM. The procedure, abridged: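 Flag/GST-tagged human B-Raf (Sf9, ~20 ng/point) phosphorylates non-active GST-MEK1 (50 nM final) with ATP and MgCl2 in MOPS pH 7.2 buffer, 60 min at RT. Product is captured on anti-GST plates; MEK1 pSer217/221 is read by phospho-antibody plus europium conjugate (DELFIA).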
For orientation: In an ELISA, binding on a coated surface is turned into a signal by an enzyme label.

[1] abbreviates: median, cpd concentrations from 10 μM to 30 nM in half log dilutions, read-out: Median IC50.

Molecules are shown by their SMILES. Where two headings read alike, the source gives them in different places. Where only a bound is given, the exact number is not on record here.

For orientation: IC50 means the concentration that gives 50% inhibition.

T1 sequence (P15056 whole entry): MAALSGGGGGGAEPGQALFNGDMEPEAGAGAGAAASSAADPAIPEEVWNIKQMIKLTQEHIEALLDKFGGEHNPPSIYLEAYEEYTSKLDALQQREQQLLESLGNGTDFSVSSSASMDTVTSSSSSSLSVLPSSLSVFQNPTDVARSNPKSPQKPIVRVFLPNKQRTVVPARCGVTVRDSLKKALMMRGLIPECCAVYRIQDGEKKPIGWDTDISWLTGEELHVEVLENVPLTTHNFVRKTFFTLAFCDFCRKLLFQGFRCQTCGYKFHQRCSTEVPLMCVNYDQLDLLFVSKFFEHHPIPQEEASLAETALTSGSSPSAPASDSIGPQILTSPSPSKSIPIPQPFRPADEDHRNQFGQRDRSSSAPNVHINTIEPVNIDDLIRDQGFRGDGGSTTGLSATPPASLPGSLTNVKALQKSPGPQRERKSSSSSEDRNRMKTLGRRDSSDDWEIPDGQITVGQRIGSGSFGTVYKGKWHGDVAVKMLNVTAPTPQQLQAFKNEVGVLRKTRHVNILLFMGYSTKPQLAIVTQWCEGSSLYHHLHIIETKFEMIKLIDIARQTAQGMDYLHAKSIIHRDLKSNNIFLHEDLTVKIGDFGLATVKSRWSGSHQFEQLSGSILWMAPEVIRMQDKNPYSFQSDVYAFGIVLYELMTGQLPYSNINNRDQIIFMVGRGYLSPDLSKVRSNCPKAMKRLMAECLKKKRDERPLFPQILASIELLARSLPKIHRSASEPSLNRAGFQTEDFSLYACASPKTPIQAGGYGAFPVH

Consider `Cc1ccc(C(=O)Nc2cccc(-c3ccnc4c(-c5ccc(N)cc5)cnn34)c2)cc1C(F)(F)F` [Example 180, N-{3-[3-(4-aminophenyl)pyrazolo[1,5-a]pyrimidin-7-yl]phenyl}-4-methyl-3-(trifluoromethyl)benzamide], for which the IC50 stood at 0.18 µM and the inhibition at 10 µM came to 95%. Consider `CCOC(=O)c1cnn2c(-c3cc(NC(=O)c4cccc(C(F)(F)F)c4)ccc3F)ccnc12` [Example 91, ethyl 7-(2-fluoro-5-{[3-(trifluoromethyl)benzoyl]amino}phenyl)pyrazolo[1,5-a]pyrimidine-3-carboxylate], for which the inhibition at 10 µM was determined as 94%. The IC50 under setting [1] was determined as 0.112 µM. The like results for `CC(C)(C)OC(=O)n1cc(-c2cnn3c(-c4cccc(NC(=O)c5cccc(C(F)(F)F)c5)c4)ccnc23)cn1` [Example 276, tert-butyl 4-[7-(3-{[3-(trifluoromethyl)benzoyl]amino}phenyl)pyrazolo[1,5-a]pyrimidin-3-yl]-1H-pyrazole-1-carboxylate] were, in that order, 58% and 2.06 µM. In the case of `COC(=O)c1cccc(-c2cc3nccc(-c4cccc(NC(=O)c5cccc(C(F)(F)F)c5)c4)n3n2)c1` [Example 141, methyl 3-[7-(3-{[3-(trifluoromethyl)benzoyl]amino}phenyl)pyrazolo[1,5-a]pyrimidin-2-yl]benzoate], the inhibition at 10 µM came to 32%. Moreover, the half-inhibitory concentration (IC50) under setting [1] is over 10 µM. The corresponding values for `CCOC(=O)c1cnn2c(-c3cccc(NC(=O)Nc4ccc(C(C)=O)cc4)c3)ccnc12` [Example 19, ethyl 7-[3-({[(4-acetylphenyl)amino]carbonyl}amino)phenyl]pyrazolo[1,5-a]pyrimidine-3-carboxylate] are 0% and over 10 µM.

`CCOC(=O)c1cnn2c(-c3cccc(NC(=O)Nc4ccc(N5CCOCC5)c(Cl)c4)c3)ccnc12` [Example 84, ethyl 7-[3-({[(3-chloro-4-morpholin-4-ylphenyl)amino]carbonyl}amino)phenyl]pyrazolo[1,5-a]pyrimidine-3-carboxylate]: the inhibition at 10 µM came to 22%. In addition, the half-maximal inhibitory concentration (IC50) under setting [1] was over 10 µM. In the case of `Cc1ccc(C(=O)Nc2cccc(-c3ccnc4c(-c5nn[nH]n5)cnn34)c2)cc1C(F)(F)F` [Example 66, 4-methyl-N-{3-[3-(2H-tetrazol-5-yl)pyrazolo[1,5-a]pyrimidin-7-yl]phenyl}-3-(trifluoromethyl)benzamide], the inhibition at 10 µM came to 18%. In addition, under setting [1], the half-inhibitory concentration (IC50) is over 10 µM. The like results for `COc1ccc(C(=O)Nc2cccc(-c3ccnc4cc(N5CCOCC5)nn34)c2)cc1C(F)(F)F` [Example 195, 4-methoxy-N-[3-(2-morpholin-4-ylpyrazolo[1,5-a]pyrimidin-7-yl)phenyl]-3-(trifluoromethyl)benzamide] were, in that order, 93% and 0.22 µM. With `CCOC(=O)c1cnn2c(-c3cccc(NC(=O)c4ccc(OC)c(Cl)c4)c3)ccnc12` [Example 73, ethyl 7-{3-[(3-chloro-4-methoxybenzoyl)amino]phenyl}pyrazolo[1,5-a]pyrimidine-3-carboxylate], the inhibition at 10 µM was 5%. Moreover, under setting [1], the IC50 was over 10 µM.

With `O=C(Nc1cccc(-c2ccnc3cc(-c4ccc(Br)cc4)nn23)c1)c1cccc(C(F)(F)F)c1` [Example 287, N-{3-[2-(4-bromophenyl)pyrazolo[1,5-a]pyrimidin-7-yl]phenyl}-3-(trifluoromethyl)benzamide], the inhibition at 10 µM was 12%. For the same compound, the IC50 under setting [1] is over 10 µM. For `COc1ccc(-c2cc3nccc(-c4cccc(NC(=O)c5cccc(C(F)(F)F)c5)c4)n3n2)cc1` [Example 136, N-{3-[2-(4-methoxyphenyl)pyrazolo[1,5-a]pyrimidin-7-yl]phenyl}-3-(trifluoromethyl)benzamide], the IC50 is over 10 µM and the inhibition at 10 µM is 35%. Turning to `O=C(Nc1cccc(-c2ccnc3c(C(=O)OCC(F)(F)F)cnn23)c1)c1cccc(C(F)(F)F)c1` [Example 125, 2,2,2-trifluoroethyl 7-(3-{[3-(trifluoromethyl)benzoyl]amino}phenyl)pyrazolo[1,5-a]pyrimidine-3-carboxylate], the inhibition at 10 µM is 67%. Also, the IC50 under setting [1] was 0.9 µM. The corresponding values for `COCC(=O)Nc1cccc(-c2cnn3c(-c4cccc(NC(=O)c5cccc(C(F)(F)F)c5)c4)ccnc23)c1` [Example 252, N-[3-(3-{3-[(methoxyacetyl)amino]phenyl}pyrazolo[1,5-a]pyrimidin-7-yl)phenyl]-3-(trifluoromethyl)benzamide] are 79% and 0.082 µM. For the compound `O=C(Nc1cccc(-c2ccnc3c(-c4cccnc4)cnn23)c1)c1ccc(Cl)c(C(F)(F)F)c1` [Example 172, 4-chloro-N-[3-(3-pyridin-3-ylpyrazolo[1,5-a]pyrimidin-7-yl)phenyl]-3-(trifluoromethyl)benzamide], the inhibition at 10 µM worked out at 81%. In addition, under setting [1], the half-inhibitory concentration (IC50) is 1.01 µM.

For `COC[C@H]1CCCN1c1cc2nccc(-c3cccc(NC(=O)c4cccc(C(F)(F)F)c4)c3)n2n1` [Example 210, N-(3-{2-[(2R)-2-(methoxymethyl)pyrrolidin-1-yl]pyrazolo[1,5-a]pyrimidin-7-yl}phenyl)-3-(trifluoromethyl)benzamide], the inhibition at 10 µM was 52%. The IC50 under setting [1] worked out at 2.5 µM.

As to `O=C(Nc1cccc(-c2ccnc3cc(-c4ccnc(NCCN5CCCCC5)c4)nn23)c1)c1cccc(C(F)(F)F)c1` [Example 264, N-[3-(2-{2-[(2-piperidin-1-ylethyl)amino]pyridin-4-yl}pyrazolo[1,5-a]pyrimidin-7-yl)phenyl]-3-(trifluoromethyl)benzamide], the inhibition at 10 µM worked out at 97%. Besides, under setting [1], the IC50 is 0.0958 µM. With `Cc1ccc(C(=O)Nc2cccc(-c3ccnc4c(-c5ccccn5)cnn34)c2)cc1C(F)(F)F` [Example 65, 4-methyl-N-[3-(3-pyridin-2-ylpyrazolo[1,5-a]pyrimidin-7-yl)phenyl]-3-(trifluoromethyl)benzamide], the inhibition at 10 µM worked out at 30%. Further, the half-maximal inhibitory concentration (IC50) under setting [1] was over 10 µM. The like results for `CCOC(=O)c1cnn2c(-c3cccc(NC(=O)c4nccc5ccccc45)c3)ccnc12` [Example 218, ethyl7-{3-[(isoquinolin-1-ylcarbonyl)amino]phenyl}pyrazolo[1,5-a]pyrimidine-3-carboxylate] were, in that order, 73% and 4.49 µM. Compound `O=C(Nc1cccc(-c2ccnc3c(-c4cnn(CCN5CCCC5)c4)cnn23)c1)c1cccc(C(F)(F)F)c1` [Example 307, N-(3-{3-[1-(2-pyrrolidin-1-ylethyl)-1H-pyrazol-4-yl]pyrazolo[1,5-a]pyrimidin-7-yl}phenyl)-3-(trifluoromethyl)benzamide] showed an IC50 of 0.393 µM. With `CCOC(=O)c1cnn2c(-c3cccc(NC(=O)Nc4nc5ccc(OC)cc5s4)c3)ccnc12` [Example 244, ethyl7-[3-({[(6-methoxy-1,3-benzothiazol-2-yl)amino]carbonyl}amino)phenyl]pyrazolo[1,5-a]pyrimidine-3-carboxylate], the inhibition at 10 µM was 24%. Also, the IC50 under setting [1] was over 10 µM. The corresponding values for `CCOC(=O)c1cnn2c(-c3cccc(NC(=O)Nc4ccc(SC(F)(F)F)cc4)c3)ccnc12` [Example 24, ethyl 7-(3-{[({4-[(trifluoromethyl)thio]phenyl}amino)carbonyl]amino}phenyl)pyrazolo[1,5-a]pyrimidine-3-carboxylate] are 11% and over 10 µM.

In the case of `Cn1c(C(=O)Nc2cccc(-c3ccnc4cc(-c5ccncc5)nn34)c2)cc2ccccc21` [Example 238, 1-methyl-N-[3-(2-pyridin-4-ylpyrazolo[1,5-a]pyrimidin-7-yl)phenyl]-1H-indole-2-carboxamide], the inhibition at 10 µM stood at 50%. Besides, the IC50 under setting [1] was over 10 µM. The like results for `O=C(Nc1cccc(-c2ccnc3cc(-c4ccnc(NCCCn5ccnc5)c4)nn23)c1)c1cccc(C(F)(F)F)c1` [Example 262, N-{3-[2-(2-{[3-(1H-imidazol-1-yl)propyl]amino}pyridin-4-yl)pyrazolo[1,5-a]pyrimidin-7-yl]phenyl}-3-(trifluoromethyl)benzamide] were, in that order, 98% and 0.0655 µM. With `COc1ccc(C(=O)Nc2cccc(-c3ccnc4c(-c5cccnc5)cnn34)c2)cc1C(F)(F)F` [Example 170, 4-methoxy-N-[3-(3-pyridin-3-ylpyrazolo[1,5-a]pyrimidin-7-yl)phenyl]-3-(trifluoromethyl)benzamide], the IC50 was determined as 0.14 µM and the inhibition at 10 µM was determined as 96%. Regarding `CCOC(=O)c1cnn2c(-c3cccc(NC(=O)c4cc(F)c(Cl)cc4F)c3)ccnc12` [Example 29, ethyl 7-{3-[(4-chloro-2,5-difluorobenzoyl)amino]phenyl}pyrazolo[1,5-a]pyrimidine-3-carboxylate], the inhibition at 10 µM was 0%. The 50% inhibitory concentration (IC50) under setting [1] is over 10 µM. The corresponding values for `CCOC(=O)c1cnn2c(-c3cccc(NC(=O)CC(C)(C)C)c3)ccnc12` [Example 225, ethyl7-{3-[(3,3-dimethylbutanoyl)amino]phenyl}pyrazolo[1,5-a]pyrimidine-3-carboxylate] are 7% and over 10 µM.

Turning to `N#Cc1ccccc1-c1cnn2c(-c3cccc(NC(=O)c4cccc(C(F)(F)F)c4)c3)ccnc12` [Example 293, N-{3-[3-(2-cyanophenyl)pyrazolo[1,5-a]pyrimidin-7-yl]phenyl}-3-(trifluoromethyl)benzamide], the IC50 was found to be 7.47 µM and the inhibition at 10 µM came to 55%. Take `O=C(Nc1cccc(-c2ccnc3c(Br)cnn23)c1)Nc1ccc(Cl)c(Cl)c1` [Example 168, N-[3-(3-bromopyrazolo[1,5-a]pyrimidin-7-yl)phenyl]-N′-(3,4-dichlorophenyl)urea]: the inhibition at 10 µM came out at 58%. For the same compound, the IC50 under setting [1] turned out to be 2.41 µM.

Values taken from US20070219186A1, “Pyrazolo[1,5-A]pyrimidine derivatives and methods of use thereof” (priority 2006, published 2007).
